Patent publication US10118934B2 (Wisconsin Alumni Research Foundation, priority 2014, dated 2018)
Values after ≈ are worked out from the molar mass of the structure shown. Values joined by “and” are separate entries in the source; they are usually repeats but may differ in a detail not shown here. Equal values may be shown once. “Also recorded” adds a separate entry of the source. Read-outs that look alike come from different tables or passages of the source.

Key:
MtUGM [1] = target: T1, MtUGM (Mycobacterium tuberculosis, UniProt P9WIQ1); settings: compound library screened against MtUGM; cited from earlier work
T1 sequence (P9WIQ1 whole entry): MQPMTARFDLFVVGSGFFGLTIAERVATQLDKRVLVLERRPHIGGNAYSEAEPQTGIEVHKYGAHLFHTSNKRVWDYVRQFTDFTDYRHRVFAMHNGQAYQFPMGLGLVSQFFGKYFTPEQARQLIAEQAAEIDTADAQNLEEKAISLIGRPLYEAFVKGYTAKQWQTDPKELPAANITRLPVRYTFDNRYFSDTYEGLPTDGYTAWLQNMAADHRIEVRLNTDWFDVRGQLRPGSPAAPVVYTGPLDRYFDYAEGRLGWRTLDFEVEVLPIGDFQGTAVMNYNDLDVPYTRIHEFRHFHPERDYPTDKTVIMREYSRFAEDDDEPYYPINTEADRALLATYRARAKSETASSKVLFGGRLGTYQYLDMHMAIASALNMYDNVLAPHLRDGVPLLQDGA

KpUGM [2] = target: T2, KpUGM (Klebsiella pneumoniae, UniProt Q48485); experiment: biochemical; assay type: binding; settings: for Kd: probe displacement in competitive-binding FP assay
T2 construct: His-tag; made in house; host or cells: E. coli BL21(DE3)
T2 sequence (Q48485 24-384): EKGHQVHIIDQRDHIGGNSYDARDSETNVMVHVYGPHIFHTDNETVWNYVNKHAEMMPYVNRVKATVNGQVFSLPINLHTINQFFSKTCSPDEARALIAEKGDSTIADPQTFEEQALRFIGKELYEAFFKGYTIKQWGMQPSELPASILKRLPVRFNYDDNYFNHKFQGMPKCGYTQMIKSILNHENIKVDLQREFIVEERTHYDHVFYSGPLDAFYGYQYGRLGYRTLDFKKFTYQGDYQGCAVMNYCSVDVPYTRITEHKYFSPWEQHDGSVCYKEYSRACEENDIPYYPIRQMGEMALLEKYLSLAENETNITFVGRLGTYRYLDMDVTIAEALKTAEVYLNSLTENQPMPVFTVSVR
Procedure: A fluorescence polarization assay was used to measure ligand binding to KpUGM [Soltero-Higgin et al. 2004, Carlson et al. 2006] Tumbling of the fluorescein-UDP conjugated probe was measured on a Tecan M1000 microplate reader, exciting with 470 nm light and monitoring emission at 525 nm. Each condition was tested in triplicate in the presence of 220 nM KpUGM and 23.3 nM of the probe. Data was fit with a one-site binding nonlinear regression in GraphPad Prism 6.

KpUGM [3] = target: T2, KpUGM; assay type: biochemical; settings: for effect of detergent on KpUGM inhibition: presence and absence of 0.025% Tween 80; for Ki: Lineweaver-Burk analysis, competitive inhibition
Procedure: Anal Biochem, 1996: p. […] J Med Chem, 2002. 45(8): p. 1712-22] we repeated the assay in the presence of detergent (0.025% Tween 80).
(§1) Enzymatic activity of recombinant UGM was monitored using an HPLC-based assay [Wesener et al., 2013; Lee et al. 1996; Zhang, Q. and H.-w. […] J. Amer. Chem. Soc., 2000. 122(38): p. 9065-9070]. Reactions were performed in duplicate at 22° C. in 50 mM NaH2PO4 buffer (pH 7) with 20 nM enzyme and 20 mM fresh sodium dithionite. Small molecules were added from DMSO stocks to a final concentration of 1% DMSO. Concentration of UDP-Galf [Marlow, A. L. and L. L. Kiessling, Improved Chemical Synthesis of UDP-Galactofuranose. Org Lett, 2001. 3(16): p. 2517-2519] was held constant at the Km of the UGM homolog being analyzed, except for generation of Lineweaver-Burk plots. Reaction time and substrate concentration were varied for Lineweaver-Burk analysis, and each condition was tested in triplicate. Quenched reactions were run through a CarboPac PA-100 column (Thermo Scientific) on an Agilent 1260 Infinity HPLC using an isocratic elution of 200 mM ammonium acetate (pH 8) to separate substrate and product peaks.

[4] = dynamic light scattering (DLS) detection of colloidal aggregation; assay type: physicochemical
Procedure: To evaluate aggregation by DLS compounds were diluted from concentrated stocks in DMSO into filtered 50 mM potassium phosphate, pH 7.0. The final DMSO concentration was 1%, and compound concentrations were usually 100 μM. Samples were run in duplicates. All measurements were made at room temperature using a DynaPro MS/X (Wyatt Technology) with a 55 mW laser at 826.6 nm. The laser power was 100%, and the detector angle was 90°.

AmpC β-lactamase = AmpC β-lactamase (Escherichia coli, UniProt P00811); assay type: biochemical; settings: for inhibition of AmpC β-lactamase: 100 μM
Sequence of AmpC β-lactamase (P00811 20-377): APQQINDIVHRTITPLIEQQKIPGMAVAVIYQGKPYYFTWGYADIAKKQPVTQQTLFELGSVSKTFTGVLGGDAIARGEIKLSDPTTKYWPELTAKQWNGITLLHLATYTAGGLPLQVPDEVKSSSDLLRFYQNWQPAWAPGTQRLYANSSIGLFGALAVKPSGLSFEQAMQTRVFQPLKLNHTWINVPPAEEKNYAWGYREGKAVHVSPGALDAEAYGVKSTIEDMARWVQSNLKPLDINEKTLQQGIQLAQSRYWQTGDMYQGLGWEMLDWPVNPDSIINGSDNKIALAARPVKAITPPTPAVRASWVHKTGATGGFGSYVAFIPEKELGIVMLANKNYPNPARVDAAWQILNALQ
Procedure: (§2) Compounds were tested for inhibition of Malate Dehydrogenase and AmpC β-lactamase as reported. Assays were performed in 50 mM potassium phosphate buffer, pH 7.0 at 25° C. For AmpC the molecules were mixed with buffer and CENTA substrate (50 μM; Tydock Pharma; Modena, Italy) to a final concentration of 1% DMSO (v/v). Reactions were initiated by addition of β-Lactamase (1 nM). Change in absorbance was monitored at 405 nm for 3 minutes. For Malate Dehydrogenase assay (MDH; Sigma Cat# M-7032), the molecule was mixed with buffer and 2 nM final concentration of the enzyme to a final concentration of 1% DMSO (v/v) and were incubated for five minutes. MDH reactions were started by adding substrates: Oxaloacetic acid (20 mM stock in buffer, prepared fresh daily; Sigma Cat# O4126) to a final concentration 200 μM and NADH (20 mM stock in buffer—prepare fresh daily; Sigma Cat# N-4505) to a final concentration 200 μM. Change in absorbance was monitored at […] for 2.5 minutes. Absorbance was monitored on an HP 8453 UV—visible spectrophotometer (Agilent, Technologies, Santa Clara, Calif.). The assays were performed in duplicate in methacrylate disposable cuvettes.

HEK293 cells = experiment: cytotoxicity assay (CellTiter-Glo); assay type: cell-based
Procedure: Four thousand HEK 293T cells were added to wells of a sterile 96-well plate in 99 μl DMEM with 10% FBS. The plate was incubated for 24 hours at 37° C. with 5% CO2 to allow cells to attach. Cells were then treated with serially diluted small molecules or a vehicle control. The final DMSO concentration was 1% in each well. After 24 hours of incubation, viability of the treated cells was analyzed using CellTiter-Glo Luminescent Cell Viability Assay (Promega). Viability readings were normalized to DMSO control wells.

MtUGM [5] = target: T1, MtUGM; experiment: HPLC-based UGM activity assay, homolog specificity; assay type: biochemical; settings: 100 μM compound
CdUGM = target: T3, CdUGM (Corynebacterium diphtheriae, UniProt Q6NER4); experiment: HPLC-based UGM activity assay, homolog specificity; assay type: biochemical, C. diphtheriae; settings: 100 μM compound
T3 construct: Open reading frame coding for residue 18-404 of CdUGM was amplified; His-tag with TEV cleavage site (N); made in house; host or cells: Escherichia coli ER2523
T3 sequence (Q6NER4 entry or part of it): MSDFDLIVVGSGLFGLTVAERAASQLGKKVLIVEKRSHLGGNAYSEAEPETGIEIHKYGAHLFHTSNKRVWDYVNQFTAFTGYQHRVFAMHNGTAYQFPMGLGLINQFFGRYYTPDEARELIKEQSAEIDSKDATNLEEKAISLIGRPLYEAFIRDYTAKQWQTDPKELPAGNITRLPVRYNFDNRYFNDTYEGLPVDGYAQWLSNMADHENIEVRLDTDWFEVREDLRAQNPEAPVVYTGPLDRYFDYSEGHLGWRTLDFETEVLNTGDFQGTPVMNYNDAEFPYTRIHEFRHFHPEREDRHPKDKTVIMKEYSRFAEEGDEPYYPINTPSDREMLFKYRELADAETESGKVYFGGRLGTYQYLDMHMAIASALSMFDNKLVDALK
Procedure: The specificity of in vitro UGM inhibition was assessed using purified recombinant UGM homologs. MtUGM and C. diptheriae UGM (CdUGM) share about 43% sequence identity with KpUGM, and 76% identity with each other. However, active site residues are highly conserved between the homologs. […] This trend was consistent for other analogs from this series (FIG. 14).
as §1

M. smegmatis [6] = experiment: microbroth dilution assay with alamar Blue readout; assay type: cell-based, Mycobacterium smegmatis; settings: liquid culture
[7] = target: T4, Malate Dehydrogenase (MDH) (Thermus thermophilus, UniProt P10584); experiment: aggregation counter screen, malate dehydrogenase inhibition; assay type: biochemical
T4 construct: purchased Sigma M-7032
T4 sequence (P10584 whole entry): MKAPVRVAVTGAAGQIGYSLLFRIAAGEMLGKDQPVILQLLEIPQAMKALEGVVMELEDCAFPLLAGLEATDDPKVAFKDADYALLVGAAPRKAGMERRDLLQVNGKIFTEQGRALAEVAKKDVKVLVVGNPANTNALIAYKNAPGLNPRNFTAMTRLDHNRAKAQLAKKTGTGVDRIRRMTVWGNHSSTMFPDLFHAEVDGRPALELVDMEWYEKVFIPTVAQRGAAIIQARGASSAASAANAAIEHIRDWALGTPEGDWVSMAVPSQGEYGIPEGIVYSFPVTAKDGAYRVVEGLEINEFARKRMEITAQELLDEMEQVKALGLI
Procedure: as §2

B. subtilis [8] = experiment: broth microdilution, control strain without UGM; assay type: cell-based; settings: control strain without UGM ortholog
B strain E. coli = experiment: broth microdilution, control strain without UGM; assay type: cell-based; settings: control strain without UGM ortholog
E. coli = experiment: disk diffusion assay; assay type: cell-based; settings: solid media, tested concentration
Procedure: J Bacteriol, 1989. 171(3): p. […] Cells were incubated at 37° C. overnight.

M. smegmatis [9] = experiment: disk diffusion assay; settings: solid media, 100 nmol per disk
Procedure: (§3) 1-8], and M. smegmatis were grown, the former two species in LB broth and the later in 7H9 Middlebrook media. Cells were diluted to an OD600 of 0.2 in fresh media and spread (100 μL) onto LB agar plates. Following an hour of incubation at 37° C., sterile cloning disks (3.2 mm diameter, Scienceware) impregnated with 100 nmol of compound or 2 μL of DMSO were placed on the surface of the inoculated solid media. Cells were incubated at 37° C. overnight. Plates with M. smegmatis were incubated 3 additional days at room temperature. Zones of inhibition were measured from the outer edge of the cloning disk to the border of cell growth.

B. subtilis [10] = experiment: disk diffusion assay; settings: solid media, 100 nmol per disk
Procedure: as §3

O=C(O)CCC(=O)N1N=C(c2ccccc2)CC1c1cccs1 (stereo not shown) [Compound 3]
detection as hit in HTS (MtUGM [1]): not detected by HTS

O=C(O)CC1Sc2nnc(-c3ccco3)n2N=C1c1ccccc1 (stereo not shown) [Compound 6]
Kd (KpUGM [2]): 62 µM and 43 µM
effect of detergent on KpUGM inhibition (KpUGM [3]; 100 μM compound): insensitive to detergent
Ki (KpUGM [3]): 78 µM
colloidal aggregation by DLS ([4]; 100 μM): do not form detectable colloids; also recorded: do not aggregate; also recorded: no sign of colloidal aggregation
inhibition of AmpC β-lactamase (AmpC β-lactamase): do not display any inhibition
cellular toxicity (HEK293 cells; HEK293 cells): no significant cellular toxicity

C=CCNc1nc(-c2cc(C)n(CCC(=O)O)c2C)cs1 [Compound 10]
Kd (KpUGM [2]): 9 µM and 6 µM
effect of detergent on KpUGM inhibition (KpUGM [3]; 100 μM compound): insensitive to detergent
colloidal aggregation by DLS ([4]; 100 μM): do not form detectable colloids; also recorded: no sign of colloidal aggregation
inhibition of AmpC β-lactamase (AmpC β-lactamase): do not display any inhibition

Cc1cc(-c2csc(NC(C)c3ccccc3)n2)c(C)n1CCC(=O)O (stereo not shown) [Compound 14]
binding compared with compound 10 (KpUGM [2]; FP assay): slightly tighter binding than compound 10
Kd (KpUGM [2]): 4.5 µM
KpUGM inhibition compared with lead compound 10 (KpUGM [3]; in vitro, dose-dependent): improved KpUGM inhibition; also recorded: increased dose-dependent KpUGM inhibition

O=C(O)CC1Sc2nnc(Cc3ccc(F)cc3)n2N=C1c1ccccc1 (stereo not shown) [Compound 19]
Kd (KpUGM [2]): 15 µM
colloidal aggregation by DLS ([4]; 100 μM): form colloidal aggregates; also recorded: do form colloids
colloidal aggregation by DLS ([4]; high concentrations): show aggregation

O=C(O)CC1Sc2nnc(-c3cccs3)n2N=C1c1ccc(Cl)cc1 (stereo not shown) [Compound 22]
Kd (KpUGM [2]): 9 µM and 9.2 µM
Ki (KpUGM [3]): 7 µM
inhibition of MtUGM (MtUGM [5]): 19%
inhibition of CdUGM (CdUGM): 38%
colloidal aggregation by DLS ([4]; 100 μM): did not show any aggregation; also recorded: do not aggregate; also recorded: no sign of colloidal aggregation
M. smegmatis growth repression (M. smegmatis [6]; tested concentrations): no M. smegmatis growth repression

Cc1ccc(C2=Nn3c(COc4ccc(Cl)cc4)nnc3SC2CC(=O)O)cc1 (stereo not shown) [Compound 24]
Kd (KpUGM [2]): 9 µM and 9.2 µM
colloidal aggregation by DLS ([4]; 100 μM): form colloidal aggregates; also recorded: do form colloids
colloidal aggregation by DLS ([4]; high concentrations): show aggregation
detection as hit in HTS (MtUGM [1]): not detected by HTS

O=C(O)CC1Sc2nnc(Cc3ccc(Br)cc3)n2N=C1c1ccc(Cl)cc1 (stereo not shown) [Compound 30]
Kd (KpUGM [2]): 4.5 µM and 4.7 µM
KpUGM activity in presence of compound (KpUGM [3]; 50 μM compound): no measurable activity
KpUGM activity in presence of compound (KpUGM [3]; 100 μM compound): no measurable activity
selectivity between UGM homologs (KpUGM [3]; KpUGM vs MtUGM and CdUGM): selective for KpUGM over MtUGM and CdUGM
Ki (KpUGM [3]): 1.1 µM
potency relative to compound 22 in vitro (KpUGM [3]; from Ki values): about 5 fold
colloidal aggregation by DLS ([4]; 10 μM): does not aggregate
colloidal aggregation by DLS ([4]; 100 μM): forms colloidal aggregates; also recorded: do form colloids
colloidal aggregation by DLS ([4]; high concentrations): show aggregation
inhibition of AmpC (AmpC β-lactamase; high concentrations): non-specific inhibition
effect of detergent on MDH inhibition ([7]; addition of detergent): fully rescued by the addition of detergent; also recorded: reversible by the addition of detergent
IC50 ([7]; full dose response curve, no detergent): 55.7 µM
inhibition of MDH ([7]; high concentrations): non-specific inhibition
MIC (M. smegmatis [6]; 46 hours of growth, alamar blue): 20 µM (≈ 9.56 µg/mL)
MIC (B. subtilis [8]): 500 µM (≈ 239 µg/mL)
MIC (B strain E. coli): > 500 µM
cell-killing in disk diffusion (E. coli): No cell-killing
difference between LD50 and MIC for M. smegmatis (HEK293 cells): 5 fold
cellular toxicity (HEK293 cells; HEK293 cells): only mildly toxic
LD50 (HEK293 cells; HEK293 cells, 24 hours): ~100 µM
zone of growth inhibition, comparison within series (M. smegmatis [9]): outperformed all other compounds of the series
zone of growth inhibition (B. subtilis [10]): significantly smaller than that observed for M. smegmatis
